Data taken from patent EP2345639A1, “Cyclic hydroxylamine derivatives, their preparation and use as antioxidants” (ABIOGEN PHARMA S.p.A., priority 2009, dated 2011).
Blank lines part the entries; values can stand above or below the molecule they belong to.

Columns and labels:
[1] = test system: C6 cells (rat glioma) and BAEC cells (bovine aortic endothelial); experiment: In vitro inhibition of CHP-induced oxidative stress (DCF fluorescence); format: cell-based; conditions: 500 µM CHP, 4, 20, 100 and 500 µM compound, 30 minutes; depending on the concentrations and cell line
Procedure: The method used was essentially the one reported by Rüweler M. et al. ("Inhibition of peroxide-induced radical generation by plant polyphenols in C6 astroglioma cells" (2008) Toxicol in vitro 22, 1377-81), with a few minor modifications.
The cells were seeded in phenol-red free DMEM (Sigma Aldrich) into 96-well plates with 5% FBS and 20 mM HEPES at a density of 40,000 cells/well. After 48 hours, the medium was substituted by HBSS (Hanks' Balanced Salt Solution, Sigma) containing 10 µM of dihydro-2',7'-dichlorofluorescein diacetate (H2DCF-DA, Sigma Aldrich) and incubated in darkness for 30 minutes at 37 °C, in order to load the cells with fluorescent dye. H2DCF-DA was hydrolyzed enzymatically by the intracellular esterases to form non-fluorescent H2DCF, which was then rapidly oxidized to form 2',7'-dichlorofluorescein (DCF) being highly fluorescent in the presence of reactive species (RS). The intensity of DCF fluorescence is directly proportional to the amount of RS formed.
After carrying out two washes, the cells were exposed to 500 µM of CHP and various concentrations (4, 20, 100 and 500 µM) of the compounds of the invention for 30 minutes at 37 °C. Fluorescence was then measured, after cell washing, by a microplate reader at an excitation wavelength of 485 nm and an emission wavelength of 535 nm.
Six wells per plate per concentration of test composition (compound + CHP) and per control (HBSS without CHP) were measured and 12 wells were used as reference for CHP-induced stress. In addition, each 96-well plate contained 6 wells that received the highest concentration of the tested compounds without CHP, to investigate whether the compounds of the invention alone were able to induce cellular radical formation.
When using this assay, it should be borne in mind that DCF fluorescence is a generalized indicator of oxidative stress rather than of any particular reactive species, i.e. it is not a direct assay for H2O2 or other reactive species (Halliwell B, Whiteman M. (2004) "Measuring reactive species and oxidative damage in vivo and in cell culture: how should you do it and what do the results mean?" Br. J. Pharmacol. 142 231-255). Therefore, when an increase in DCF fluorescence induced by exposure of cells to CHP was measured, as was carried out in these assays, it was not possible to deduce which reactive species was responsible. Inhibition of CHP-induced fluorescence was evaluated by means of different concentrations of the compounds of the invention and comparative compounds such as Trolox and edaravone.

[2] = TEAC method (Trolox Equivalent Antioxidant Capacity Assay); format: biochemical; conditions: ratio of gradient to gradient of Trolox; 650 nm, 37 °C, about 90 minutes
Text: This assay is used to measure the total antioxidant activity of pure substances, biological fluids and plant compounds and is based on the reaction of antioxidants with the cation radical ABTS·^+ (2,2'-azinobis(3-ethylbenzothiazolin-6-sulphonate)). This cation radical is metastable and has to be generated just before the experiment by reacting ABTS with hydrogen peroxide in the presence of HRP. This radical can be reduced, with consequent loss of absorbance, by an antioxidant whose scavenging capacity can be measured spectrophotometrically at 650 nm. The test is carried out at 37 °C and the results are obtained from a comparison with Trolox (a synthetic antioxidant and hydrophilic analogue of vitamin E).
The ABTS solution S1 was prepared as follows: • 20 mg of ABTS were added to 50 mM of citric acid buffer (40 ml) at pH=4.5 and to the resulting solution there was added an aqueous solution of HRP (4.4 mg, 400 µl) and an aqueous solution of H2O2 (10 µl of a 30% solution diluted with 16.3 ml of water).
For each of the compounds (1)-(11), as synthesized above, there was prepared a 600 µM solution in water, methanol or DMSO according to its solubility, as well as a Trolox solution as reference.
Each solution was diluted to produce 6 solutions each at a concentration between 25 µM and 300 µM. From each of the diluted and divided solutions, there were withdrawn 20 µl to which 200 µl of solution S1 were then added.
The decrease in absorbance of each solution thus obtained was monitored at 650 nm until a stable value was reached (about 90 minutes).
For each set of 6 solutions and for the reference trolox solution, the absorption was given in graph form as a function of the amount of compound (nmol) in the solution. The gradient of the straight line obtained by linear interpolation was determined according to the least squares method. The TEAC value of each compound of the invention is given in the table below and is expressed as the ratio between the gradient of the resulting straight line and the gradient of the reference (trolox) straight line.

healthy animals = experiment: Effect of the compounds on healthy animals (same in vivo assay, cerebral oxidative parameters); set-up: species or system mice; conditions: healthy mice; for Average % variation with respect to the vehicle: 50 mg/kg IP for three consecutive days, mean over all parameters, D = doxorubicin alone; for CAT/pr / GPX/pr / GSH/pr / GST/pr / Prot. Hmg / Prot. Ox/pr / SOD/pr / Brain/BWi: 50 mg/kg IP x3 days, percentage change relative to the vehicle
Procedure: (§1) 10 mice were used for each treatment group. For each compound 50 mg/kg were administered intraperitoneally (IP) for three consecutive days (day 0, 1 and 2); half the animals (5) also received IP 16.7 mg/kg of doxorubicin immediately after the first treatment (day 0). On the day after the last administration (day 3) the animals were killed by neck dislocation and the brains were removed, weighed and frozen in liquid nitrogen.
(§2) For the analyses of oxidative stress, 100 mg/ml of brain homogenate was prepared in HEB^(*) buffer (pH 7.4 EDTA/HEPES^(**)) containing a mixture of enzyme inhibitors (Leupeptin, Pepstatin, Aprotinin, BHA).
(§3) The evaluation parameters were: • BrW/BWi: ratio between final brain weight and initial body weight (day 0); • Prot. Hmg: total proteins in the homogenate (BCA method, i.e. bicinchoninic acid); • Prot. Ox: oxidized proteins in the Hmg by means of a colorimetric method using dinitrophenylhydrazone (DNPH); • GSH: reduced glutathione in the supernatant (sn) of the Hmg, obtained after precipitation with metaphosphoric acid (MPA), by means of a colorimetric method using dithiodinitrobenzene (DTNB); • CAT: catalase in the Hmg by a colorimetric method using potassium dichromate; • SOD: superoxide dismutase by a colorimetric method using SOD Reagent (xanthine, EDTA, nitroblue tetrazole, Na2CO3, BSA, i.e. bovine serum albumin); • GST: glutathione S-transferase in the supernatant by a colorimetric method using chlorodinitrobenzene (CDNB) and GSH; and • GPx: glutathione peroxidase in the supernatant after addition of GSH and t-BuOOH, heating and precipitation with MPA; followed by GSH method with DTNB. The assay was performed on the compounds (1)-(5) and (7)-(11) and on edaravone (E), as comparative compound.
The mean % effect, on all the parameters simultaneously, of the triple treatment in healthy animal, as mean percentage change relative to the vehicle. This value is useful as an approximate safety index of the oxidative state of the brain, i.e. the capacity of the compounds of the invention not to alter cerebral homeostasis in healthy animals.

[3] = test system: doxorubicin-induced cerebral oxidative stress in mice; experiment: In vivo assay of cerebral oxidative stress induced in mice by doxorubicin (model and oxidized animals); conditions: % incidence of D relative to V
Procedure: The assay was carried out on compounds (1)-(5) and (7)-(11) and on edaravone (E) as comparative compound.
as §1, §2, §3
The mean effect (n=5 experiments) of doxorubicin (D), i.e. "oxidized" animal, relative to the vehicle (V), the vehicle representing the healthy animal.
All the parameters, with the exclusion of Brain/BWi and Prot. Hmg, were normalized for total Hmg proteins. The D value standard deviations and the % incidence relative to V are given in italics.
The effect of the tested compounds on the "oxidized" animals was given as % inhibition relative to the percentage change due to doxorubicin alone. The effect of the compounds on the oxidized animals can be expressed both as a function of the values of the vehicle (healthy, vehicle only) and as a function of the value of its own (healthy, compound only): • Vehicle: percentage [(Compound+D)/V]x100/[(V+D)/V]x100 • Its own: percentage [(Compound+D)/Compound]x100/[(V+D)/V]x100
Again in this case, the mean % effect relative to doxorubicin alone could be given for all the parameters simultaneously, as an approximate index of effectiveness on the cerebral oxidative state of the animal.

[4] = Acid dissociation constants (pKa) by titration; format: physicochemical; conditions: pH at semi-neutralization point of titration with 0.1 N NaOH or HCl
Procedure: The following equipment was used during the implementation of all the examples: • for melting point determination a Buchi B-540 instrument was used; • the pKa is the pH at the semi-neutralization point of titration using a Mettler Toledo DL-50 instrument with a 0.1 N NaOH or HC! solution; • the ^1H-NMR spectra were recorded at 300 MHz and the ^13C-NMR spectra were recorded at 75 MHz using a Varian Unity 300 instrument; • spectrophotometric measurements were carried out using a Lambda Perkin Elmer 15 UV/Vis spectrophotometer for the DPPH assay and a Wallac Victor 1420 multilabel counter spectrophotometer.

[5] = Brain-to-plasma concentration ratio in mice; format: in vivo, Female CD-1 mice; conditions: female, CD-1, mouse, ip, 25 mg/kg intraperitoneal, area under the curve of brain and plasma concentrations 0 to 60 minutes, read-out: B/P ratio

SMILES: Cc1c(C)c2c(c(C)c1O)CCC(C)(C(=O)O)O2 (centres unmarked) [Trolox, reference compound]
Inhibition of CHP-induced fluorescence [1]: 10-50%

SMILES: O=C1O[C@H]([C@@H](O)CO)C(O)=C1O [vitamin C, reference compound]
TEAC [2]: 0.9

SMILES: CC1(C)CCN(O)C(C2C(=O)CC(c3ccccc3)CC2=O)C1 (centres unmarked) [(2), 2-(1-hydroxy-4,4-dimethylpiperidin-2-yl)-5-phenylcyclohexane-1,3-dione]
Average % variation with respect to the vehicle (healthy animals; 50 mg/kg): did not significantly alter the parameters
Average % variation with respect to the vehicle (healthy animals; listed as V+(2), 50 mg/kg): 3.6%
Brain/BWi (healthy animals): 7.6%
CAT/pr (healthy animals): -2.9%
GPX/pr (healthy animals): 6.6%
GSH/pr (healthy animals): 6.1%
GST/pr (healthy animals): 5.8%
Prot. Hmg (healthy animals): -2.2%
Prot. Ox/pr (healthy animals): -3.7%
SOD/pr (healthy animals): -0.2%
TEAC [2]: 0.6
Kp [5]: > 0.1
pKa1 [4]: 3.21
pKa2 [4]: 6.85

SMILES: CC1(C)CC(=O)C(C2CC(C)(C)CCN2O)C(=O)C1 (centres unmarked) [(1), 2-(1-hydroxy-4,4-dimethylpiperidin-2-yl)-5,5-dimethylcyclohexane-1,3-dione]
Average % variation with respect to the vehicle (healthy animals): -7.0%
TEAC [2]: 1.0
Inhibition of CHP-induced fluorescence [1]: effective
Kp [5]: > 0.1
pKa1 [4]: 3.35
pKa2 [4]: 6.83

Further lines, with some results ahead:

Average % variation with respect to the vehicle (healthy animals): -11.4%
CAT/pr (healthy animals): -13.2%
GPX/pr (healthy animals): -9.9%
GSH/pr (healthy animals): -12.5%
GST/pr (healthy animals): -9.1%
Prot. Hmg (healthy animals): 8.3%
Prot. Ox/pr (healthy animals): 17.2%
SOD/pr (healthy animals): -14.3%
Brain/BWi (healthy animals; 50 mg/kg): 6.9%
Brain/BWi (healthy animals; listed as D, 50 mg/kg): -6.9%
SMILES: COc1cccc2c1C(=O)c1c(O)c3c(c(O)c1C2=O)C[C@@](O)(C(=O)CO)C[C@@H]3O[C@H]1C[C@H](N)[C@H](O)[C@H](C)O1 [doxorubicin, reference compound]
%D Brain/BWi [3]: 93.1%
%D CAT [3]: 86.8%
%D GPX [3]: 90.1%
%D GSH [3]: 87.5%
%D GST [3]: 90.9%
%D Prot. Hmg [3]: 108.3%
%D Prot. Ox [3]: 117.2%
%D SOD [3]: 85.7%

pKa1 [4]: 3.00
pKa2 [4]: 6.39
SMILES: O=C1CCCC(=O)C1C1COCCN1O (centres unmarked) [(6), 2-(4-hydroxymorpholin-3-yl)-cyclohexane-1,3-dione]
TEAC [2]: 1.1

Average % variation with respect to the vehicle (healthy animals): -9.9%
pKa1 [4]: 2.85
pKa2 [4]: 5.71
SMILES: Cc1cc(O)c(C2COCCN2O)c(=O)o1 (centres unmarked) [(9), 4-hydroxy-3-(4-hydroxymorpholin-3-yl)-6-methyl-2H-pyran-2-one]
TEAC [2]: 1.2
